Laboratory results taken from patent publication US12421238B2, “Selective dihydropyrrolopyrimidine JAK2 inhibitors” (CHENGDU JINRUI FOUNDATION BIOTECH CO., LTD., priority 2019, dated 2025).

Each compound was assayed on HEL92.1.7 (assay: HEL92.1.7 cell proliferation experiment (Cell Titer-Glo)). Conditions: Homo sapiens, HEL 92.1.7; HEL92.1.7 cells, 72 hours.
Format: cell-based

Row | SMILES | IC50 [µM]
1 | CC(C)(C)NS(=O)(=O)c1cccc(N2CCc3cnc(Nc4ccc(N5CCNCC5)cc4)nc32)c1 [Compound I-16] | 0.21
2 | CN1CCC(Cc2ccc(Nc3ncc4c(n3)N(c3cccc(S(=O)(=O)NC(C)(C)C)c3)CC4)cc2)CC1 [Compound I-7] | 0.25
3 | CC(C)(C)NS(=O)(=O)c1cccc(N2CCc3cnc(Nc4ccc(OCCN5CCS(=O)(=O)CC5)cc4)nc32)c1 [Compound I-6] | 0.35
4 | CC(C)(C)NS(=O)(=O)c1cccc(N2CCc3cnc(Nc4ccc(N5CCCCC5)cc4)nc32)c1 [Compound I-18] | 0.2
5 | CC(C)(C)NS(=O)(=O)c1cccc(N2CCc3cnc(Nc4ccc(CN5CCS(=O)(=O)CC5)cc4)nc32)c1 [Compound I-9] | 0.17
6 | CC(C)(C)NS(=O)(=O)c1cccc(N2CCc3cnc(Nc4ccc(CN5CCOCC5)cc4)nc32)c1 [Compound I-11] | 0.24

The compounds below were run on TF-1 (assay: TF-1 cell proliferation experiment (CellTiter Glo)). Conditions: Homo sapiens; TF-1 cells, 72 hours; read-out: TF-1 (μM), proliferation inhibition.
Format: cell-based

Row | SMILES | IC50 [µM]
7 | CC(C)(C)NS(=O)(=O)c1cccc(N2CCc3cnc(Nc4ccc(N5CCNCC5)cc4)nc32)c1 [Compound I-16] | 0.15
8 | CN1CCC(Cc2ccc(Nc3ncc4c(n3)N(c3cccc(S(=O)(=O)NC(C)(C)C)c3)CC4)cc2)CC1 [Compound I-7] | 0.19
9 | CC(C)(C)NS(=O)(=O)c1cccc(N2CCc3cnc(Nc4ccc(OCCN5CCS(=O)(=O)CC5)cc4)nc32)c1 [Compound I-6] | 0.15
10 | CC(C)(C)NS(=O)(=O)c1cccc(N2CCc3cnc(Nc4ccc(N5CCCCC5)cc4)nc32)c1 [Compound I-18] | 0.15
11 | CC(C)(C)NS(=O)(=O)c1cccc(N2CCc3cnc(Nc4ccc(CN5CCS(=O)(=O)CC5)cc4)nc32)c1 [Compound I-9] | 0.21
12 | CC(C)(C)NS(=O)(=O)c1cccc(N2CCc3cnc(Nc4ccc(CN5CCOCC5)cc4)nc32)c1 [Compound I-11] | 0.17

The compounds below were run against JAK1 (Homo sapiens, UniProt P23458) (assay: Kinase activity test on JAK1 (Caliper EZ Reader conversion rate)). Conditions: not given.
Chain of JAK1 (P23458 whole entry): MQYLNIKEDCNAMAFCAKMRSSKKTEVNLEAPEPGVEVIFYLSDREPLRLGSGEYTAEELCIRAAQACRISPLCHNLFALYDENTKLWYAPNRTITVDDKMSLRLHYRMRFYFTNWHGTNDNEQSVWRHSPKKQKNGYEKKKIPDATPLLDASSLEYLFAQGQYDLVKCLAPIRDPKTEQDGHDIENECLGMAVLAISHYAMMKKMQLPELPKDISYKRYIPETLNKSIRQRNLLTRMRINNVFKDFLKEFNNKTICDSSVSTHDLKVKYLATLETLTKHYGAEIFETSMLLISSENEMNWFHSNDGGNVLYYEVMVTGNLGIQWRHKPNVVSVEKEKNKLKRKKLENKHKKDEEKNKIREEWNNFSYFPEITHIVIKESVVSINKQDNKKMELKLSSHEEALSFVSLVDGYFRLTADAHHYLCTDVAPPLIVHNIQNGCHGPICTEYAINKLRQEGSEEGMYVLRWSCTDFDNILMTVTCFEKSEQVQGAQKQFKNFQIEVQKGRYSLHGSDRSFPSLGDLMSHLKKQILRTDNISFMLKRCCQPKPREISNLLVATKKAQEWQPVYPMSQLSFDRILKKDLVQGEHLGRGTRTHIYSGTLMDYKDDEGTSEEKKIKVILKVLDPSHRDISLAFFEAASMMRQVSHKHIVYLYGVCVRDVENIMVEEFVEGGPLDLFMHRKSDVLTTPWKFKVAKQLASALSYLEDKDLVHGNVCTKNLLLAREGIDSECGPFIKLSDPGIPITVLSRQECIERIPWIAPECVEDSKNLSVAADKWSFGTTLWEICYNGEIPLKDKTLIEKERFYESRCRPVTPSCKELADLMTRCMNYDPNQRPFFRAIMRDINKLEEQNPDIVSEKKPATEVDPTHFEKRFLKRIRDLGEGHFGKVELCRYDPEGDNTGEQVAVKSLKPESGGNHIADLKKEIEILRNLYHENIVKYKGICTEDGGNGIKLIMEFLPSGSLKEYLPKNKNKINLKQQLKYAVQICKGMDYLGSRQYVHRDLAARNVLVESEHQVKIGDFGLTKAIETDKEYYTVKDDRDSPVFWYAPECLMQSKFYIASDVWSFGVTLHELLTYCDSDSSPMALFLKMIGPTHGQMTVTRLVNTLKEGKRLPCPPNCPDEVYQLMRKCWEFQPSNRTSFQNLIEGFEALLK

Row | SMILES | IC50 [nM]
13 | CC(C)(C)NS(=O)(=O)c1cccc(N2CCc3cnc(Nc4ccc(N5CCNCC5)cc4)nc32)c1 [Compound I-16] | 203
14 | CC(C)(C)NS(=O)(=O)c1cccc(N2CCc3cnc(Nc4ccc(OCCN5CCS(=O)(=O)CC5)cc4)nc32)c1 [Compound I-6] | 97
15 | CC(C)(C)NS(=O)(=O)c1cccc(N2CCc3cnc(Nc4ccc(N5CCCCC5)cc4)nc32)c1 [Compound I-18] | 109

The next lines start with the values.

Row | IC50 [nM] | SMILES
16 | 103 | CN1CCC(Cc2ccc(Nc3ncc4c(n3)N(c3cccc(S(=O)(=O)NC(C)(C)C)c3)CC4)cc2)CC1 [Compound I-7]
17 | 191 | CC(C)(C)NS(=O)(=O)c1cccc(N2CCc3cnc(Nc4ccc(CN5CCS(=O)(=O)CC5)cc4)nc32)c1 [Compound I-9]
18 | 105 | CC(C)(C)NS(=O)(=O)c1cccc(N2CCc3cnc(Nc4ccc(CN5CCOCC5)cc4)nc32)c1 [Compound I-11]

Each compound was assayed against JAK2 (Homo sapiens, UniProt O60674) (assay: Kinase activity test on JAK2 (Caliper EZ Reader conversion rate)). Conditions: not given.
Chain of JAK2 (O60674 whole entry): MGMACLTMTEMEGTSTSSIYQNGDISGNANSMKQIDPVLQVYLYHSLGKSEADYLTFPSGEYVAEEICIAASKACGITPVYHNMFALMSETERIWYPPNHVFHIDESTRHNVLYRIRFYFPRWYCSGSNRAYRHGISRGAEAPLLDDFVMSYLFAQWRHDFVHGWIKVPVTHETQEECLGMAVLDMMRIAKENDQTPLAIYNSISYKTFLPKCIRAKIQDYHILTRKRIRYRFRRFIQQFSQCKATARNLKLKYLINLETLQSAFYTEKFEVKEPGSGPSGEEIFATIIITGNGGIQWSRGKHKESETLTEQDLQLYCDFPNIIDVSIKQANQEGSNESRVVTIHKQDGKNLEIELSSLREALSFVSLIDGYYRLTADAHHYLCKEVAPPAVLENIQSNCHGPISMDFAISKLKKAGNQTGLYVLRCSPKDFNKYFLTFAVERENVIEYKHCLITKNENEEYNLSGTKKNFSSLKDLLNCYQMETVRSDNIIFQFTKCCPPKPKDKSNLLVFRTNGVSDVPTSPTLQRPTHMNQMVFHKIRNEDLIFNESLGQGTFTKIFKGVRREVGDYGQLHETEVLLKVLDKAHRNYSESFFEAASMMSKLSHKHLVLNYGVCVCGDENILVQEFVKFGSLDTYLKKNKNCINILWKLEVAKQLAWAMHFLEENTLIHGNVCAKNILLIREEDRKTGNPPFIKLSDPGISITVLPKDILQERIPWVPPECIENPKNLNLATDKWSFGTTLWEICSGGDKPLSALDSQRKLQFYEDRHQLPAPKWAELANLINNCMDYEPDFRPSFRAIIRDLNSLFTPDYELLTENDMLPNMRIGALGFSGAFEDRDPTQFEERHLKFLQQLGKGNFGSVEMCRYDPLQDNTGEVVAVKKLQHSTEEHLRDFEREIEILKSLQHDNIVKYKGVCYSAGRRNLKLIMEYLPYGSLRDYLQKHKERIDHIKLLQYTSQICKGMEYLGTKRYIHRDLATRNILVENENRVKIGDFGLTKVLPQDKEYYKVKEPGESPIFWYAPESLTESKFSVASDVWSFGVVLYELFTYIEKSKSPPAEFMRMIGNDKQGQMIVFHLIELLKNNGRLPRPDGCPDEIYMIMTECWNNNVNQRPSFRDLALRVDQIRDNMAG

Row | SMILES | IC50 [nM]
19 | CC(C)(C)NS(=O)(=O)c1cccc(N2CCc3cnc(Nc4ccc(N5CCNCC5)cc4)nc32)c1 [Compound I-16] | 2
20 | CC(C)(C)NS(=O)(=O)c1cccc(N2CCc3cnc(Nc4ccc(OCCN5CCS(=O)(=O)CC5)cc4)nc32)c1 [Compound I-6] | 0.75
21 | CC(C)(C)NS(=O)(=O)c1cccc(N2CCc3cnc(Nc4ccc(N5CCCCC5)cc4)nc32)c1 [Compound I-18] | 0.7

Results, then the compound that gave them:

Row | IC50 [nM] | SMILES
22 | 0.9 | CN1CCC(Cc2ccc(Nc3ncc4c(n3)N(c3cccc(S(=O)(=O)NC(C)(C)C)c3)CC4)cc2)CC1 [Compound I-7]
23 | 1.7 | CC(C)(C)NS(=O)(=O)c1cccc(N2CCc3cnc(Nc4ccc(CN5CCS(=O)(=O)CC5)cc4)nc32)c1 [Compound I-9]
24 | 0.8 | CC(C)(C)NS(=O)(=O)c1cccc(N2CCc3cnc(Nc4ccc(CN5CCOCC5)cc4)nc32)c1 [Compound I-11]

Same assay, conditions: ratio of IC50 values, selectivity for JAK2 over JAK1

Row | SMILES | JAK1/JAK2
25 | CC(C)(C)NS(=O)(=O)c1cccc(N2CCc3cnc(Nc4ccc(N5CCNCC5)cc4)nc32)c1 [Compound I-16] | 101
26 | CC(C)(C)NS(=O)(=O)c1cccc(N2CCc3cnc(Nc4ccc(OCCN5CCS(=O)(=O)CC5)cc4)nc32)c1 [Compound I-6] | 129
27 | CC(C)(C)NS(=O)(=O)c1cccc(N2CCc3cnc(Nc4ccc(N5CCCCC5)cc4)nc32)c1 [Compound I-18] | 156

More lines, now with the values ahead:

Row | JAK1/JAK2 | SMILES
28 | 114 | CN1CCC(Cc2ccc(Nc3ncc4c(n3)N(c3cccc(S(=O)(=O)NC(C)(C)C)c3)CC4)cc2)CC1 [Compound I-7]
29 | 112 | CC(C)(C)NS(=O)(=O)c1cccc(N2CCc3cnc(Nc4ccc(CN5CCS(=O)(=O)CC5)cc4)nc32)c1 [Compound I-9]
30 | 131 | CC(C)(C)NS(=O)(=O)c1cccc(N2CCc3cnc(Nc4ccc(CN5CCOCC5)cc4)nc32)c1 [Compound I-11]

Same assay, conditions: ratio of IC50 values, selectivity for JAK2 over JAK3

Row | SMILES | JAK3/JAK2
31 | CC(C)(C)NS(=O)(=O)c1cccc(N2CCc3cnc(Nc4ccc(N5CCNCC5)cc4)nc32)c1 [Compound I-16] | 695
32 | CC(C)(C)NS(=O)(=O)c1cccc(N2CCc3cnc(Nc4ccc(OCCN5CCS(=O)(=O)CC5)cc4)nc32)c1 [Compound I-6] | 1187
33 | CC(C)(C)NS(=O)(=O)c1cccc(N2CCc3cnc(Nc4ccc(N5CCCCC5)cc4)nc32)c1 [Compound I-18] | 1588

Second part, the compound after the results:

Row | JAK3/JAK2 | SMILES
34 | 1000 | CN1CCC(Cc2ccc(Nc3ncc4c(n3)N(c3cccc(S(=O)(=O)NC(C)(C)C)c3)CC4)cc2)CC1 [Compound I-7]
35 | 782 | CC(C)(C)NS(=O)(=O)c1cccc(N2CCc3cnc(Nc4ccc(CN5CCS(=O)(=O)CC5)cc4)nc32)c1 [Compound I-9]
36 | 1225 | CC(C)(C)NS(=O)(=O)c1cccc(N2CCc3cnc(Nc4ccc(CN5CCOCC5)cc4)nc32)c1 [Compound I-11]

What follows are compounds tested against T1, JAK3 (Homo sapiens, UniProt P52333) (assay: Kinase activity test on JAK3 (Caliper EZ Reader conversion rate)). Conditions: not given.
T1 sequence (P52333 1-1124): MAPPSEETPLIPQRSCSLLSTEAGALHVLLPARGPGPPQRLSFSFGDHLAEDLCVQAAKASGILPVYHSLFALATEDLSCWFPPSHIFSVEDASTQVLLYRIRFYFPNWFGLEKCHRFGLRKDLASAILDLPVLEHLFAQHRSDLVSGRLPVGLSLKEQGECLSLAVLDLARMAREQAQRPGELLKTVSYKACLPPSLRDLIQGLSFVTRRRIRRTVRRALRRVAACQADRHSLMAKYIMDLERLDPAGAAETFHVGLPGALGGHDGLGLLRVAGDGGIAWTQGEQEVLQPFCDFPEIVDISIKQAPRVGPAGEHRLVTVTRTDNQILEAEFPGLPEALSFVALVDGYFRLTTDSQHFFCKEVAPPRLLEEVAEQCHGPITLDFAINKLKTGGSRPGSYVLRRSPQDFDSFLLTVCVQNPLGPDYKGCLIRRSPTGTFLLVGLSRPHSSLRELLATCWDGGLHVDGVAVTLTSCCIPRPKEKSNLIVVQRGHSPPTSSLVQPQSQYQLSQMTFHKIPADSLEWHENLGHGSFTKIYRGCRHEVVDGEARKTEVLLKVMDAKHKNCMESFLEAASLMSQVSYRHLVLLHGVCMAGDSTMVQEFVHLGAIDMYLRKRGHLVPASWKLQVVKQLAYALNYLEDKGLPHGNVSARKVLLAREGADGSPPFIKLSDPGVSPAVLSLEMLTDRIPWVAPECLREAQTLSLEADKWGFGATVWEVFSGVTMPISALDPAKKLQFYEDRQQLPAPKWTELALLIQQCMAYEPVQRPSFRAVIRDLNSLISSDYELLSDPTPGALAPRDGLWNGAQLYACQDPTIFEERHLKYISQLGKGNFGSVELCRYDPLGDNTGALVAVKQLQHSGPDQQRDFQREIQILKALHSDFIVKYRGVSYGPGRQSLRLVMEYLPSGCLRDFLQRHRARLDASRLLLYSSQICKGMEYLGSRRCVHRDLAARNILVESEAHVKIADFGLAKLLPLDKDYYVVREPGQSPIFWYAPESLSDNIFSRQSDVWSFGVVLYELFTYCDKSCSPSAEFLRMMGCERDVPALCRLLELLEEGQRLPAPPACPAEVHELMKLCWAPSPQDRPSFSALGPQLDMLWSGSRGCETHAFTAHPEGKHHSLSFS

Row | SMILES | IC50 [nM]
37 | CC(C)(C)NS(=O)(=O)c1cccc(N2CCc3cnc(Nc4ccc(N5CCNCC5)cc4)nc32)c1 [Compound I-16] | 1390
38 | CC(C)(C)NS(=O)(=O)c1cccc(N2CCc3cnc(Nc4ccc(OCCN5CCS(=O)(=O)CC5)cc4)nc32)c1 [Compound I-6] | 890
39 | CC(C)(C)NS(=O)(=O)c1cccc(N2CCc3cnc(Nc4ccc(N5CCCCC5)cc4)nc32)c1 [Compound I-18] | 1110

Next, values leading:

Row | IC50 [nM] | SMILES
40 | 900 | CN1CCC(Cc2ccc(Nc3ncc4c(n3)N(c3cccc(S(=O)(=O)NC(C)(C)C)c3)CC4)cc2)CC1 [Compound I-7]
41 | 1330 | CC(C)(C)NS(=O)(=O)c1cccc(N2CCc3cnc(Nc4ccc(CN5CCS(=O)(=O)CC5)cc4)nc32)c1 [Compound I-9]
42 | 980 | CC(C)(C)NS(=O)(=O)c1cccc(N2CCc3cnc(Nc4ccc(CN5CCOCC5)cc4)nc32)c1 [Compound I-11]
